Test results reported in ChEMBL document CHEMBL2169784, “Discovery and development of spleen tyrosine kinase (SYK) inhibitors” (J Med Chem, 2012).

How the values were obtained:
[1] = Half life in rat at 10 mg/kg, po administered as single dose; assay type: ADME, organism-based; parameters: dose 10 mg/kg, route oral; conditions: in vivo
[2] = Cmax in rat at 10 mg/kg, po after 2 hrs administered as single dose; assay type: ADME, organism-based; parameters: dose 10 mg/kg, route oral; conditions: in vivo

- half-life [1]: 1.78 h
- Cmax [2]: 0.167 µg/mL
SMILES: COc1ccc(-c2cc3nccn3c(Nc3ncccc3C(N)=O)n2)cc1OC
